From the NIST ThermoML archive (doi:10.1021/je800579j)

Assay: xn = mol fraction of the nth substance listed
Conditions: Liquid, Pycnometric method

C1COCCO1 [1,4-dioxane] + c1ccccc1
mass density [kg/m3]
Conditions | 288.15 K | 293.15 K | 298.15 K | 303.15 K | 308.15 K | 313.15 K | 318.15 K
x1 = 0.0713 | 895.16 | 889.77 | 884.38 | 878.99 | 873.6 | 868.22 | 862.84
x1 = 0.1403 | 905.71 | 900.28 | 894.85 | 889.42 | 883.99 | 878.58 | 873.17
x1 = 0.2123 | 916.74 | 911.28 | 905.82 | 900.36 | 894.9 | 889.45 | 884
x1 = 0.2809 | 927.28 | 921.79 | 916.3 | 910.81 | 905.32 | 899.84 | 894.36
x1 = 0.3528 | 938.34 | 932.82 | 927.31 | 921.8 | 916.28 | 910.77 | 905.26
x1 = 0.4195 | 948.63 | 943.09 | 937.55 | 932.01 | 926.47 | 920.94 | 915.41
x1 = 0.5037 | 961.65 | 956.08 | 950.51 | 944.94 | 939.38 | 933.82 | 928.26
x1 = 0.58 | 973.48 | 967.89 | 962.3 | 956.71 | 951.12 | 945.54 | 939.96
x1 = 0.6504 | 984.43 | 978.82 | 973.21 | 967.6 | 962 | 956.4 | 950.8
x1 = 0.7197 | 995.23 | 989.61 | 983.99 | 978.37 | 972.75 | 967.13 | 961.52
x1 = 0.7822 | 1005 | 999.37 | 993.74 | 988.11 | 982.48 | 976.85 | 971.23
x1 = 0.8561 | 1016.58 | 1010.94 | 1005.3 | 999.66 | 994.02 | 988.39 | 982.76
x1 = 0.9287 | 1027.99 | 1022.35 | 1016.71 | 1011.07 | 1005.43 | 999.79 | 994.15
x1 = 1 | 1039.23 | 1033.59 | 1027.95 | 1022.32 | 1016.68 | 1011.05 | 1005.42

Cc1ccc(C)cc1 [1,4-dimethylbenzene] + C1COCCO1
mass density [kg/m3]
Conditions | 288.15 K | 293.15 K | 298.15 K | 303.15 K | 308.15 K | 313.15 K | 318.15 K
x2 = 0 | 865.52 | 861.17 | 856.82 | 852.47 | 848.12 | 843.77 | 839.42
x2 = 0.0716 | 874.09 | 869.64 | 865.2 | 860.76 | 856.32 | 851.88 | 847.44
x2 = 0.1445 | 883.22 | 878.69 | 874.16 | 869.64 | 865.12 | 860.6 | 856.08
x2 = 0.2132 | 892.23 | 887.63 | 883.03 | 878.43 | 873.83 | 869.23 | 864.63
x2 = 0.2871 | 902.41 | 897.73 | 893.05 | 888.37 | 883.69 | 879.02 | 874.35
x2 = 0.3582 | 912.76 | 908 | 903.24 | 898.49 | 893.74 | 888.99 | 884.24
x2 = 0.4358 | 924.73 | 919.88 | 915.03 | 910.19 | 905.35 | 900.51 | 895.67
x2 = 0.5042 | 935.9 | 930.97 | 926.04 | 921.12 | 916.2 | 911.28 | 906.36
x2 = 0.5846 | 949.87 | 944.84 | 939.81 | 934.78 | 929.76 | 924.74 | 919.72
x2 = 0.6543 | 962.76 | 957.63 | 952.5 | 947.38 | 942.26 | 937.14 | 932.02
x2 = 0.7249 | 976.61 | 971.38 | 966.15 | 960.92 | 955.69 | 950.46 | 945.23
x2 = 0.7923 | 990.62 | 985.27 | 979.92 | 974.58 | 969.25 | 963.92 | 958.59
x2 = 0.8623 | 1006.05 | 1000.6 | 995.15 | 989.7 | 984.25 | 978.8 | 973.35
x2 = 0.9311 | 1022.14 | 1016.58 | 1011.03 | 1005.48 | 999.93 | 994.38 | 988.83

Cc1cccc(C)c1 [1,3-dimethylbenzene] + C1COCCO1
mass density [kg/m3]
Conditions | 288.15 K | 293.15 K | 298.15 K | 303.15 K | 308.15 K | 313.15 K | 318.15 K
x2 = 0 | 868.59 | 864.31 | 860.02 | 855.74 | 851.45 | 847.17 | 842.88
x2 = 0.0938 | 879.61 | 875.2 | 870.79 | 866.38 | 861.97 | 857.56 | 853.16
x2 = 0.1532 | 886.95 | 882.46 | 877.97 | 873.48 | 868.99 | 864.5 | 860.01
x2 = 0.2046 | 893.54 | 888.98 | 884.42 | 879.87 | 875.32 | 870.77 | 866.22
x2 = 0.2698 | 902.26 | 897.62 | 892.98 | 888.35 | 883.72 | 879.09 | 874.47
x2 = 0.3374 | 911.76 | 907.05 | 902.34 | 897.63 | 892.92 | 888.21 | 883.5
x2 = 0.4002 | 921.05 | 916.26 | 911.47 | 906.68 | 901.9 | 897.12 | 892.34
x2 = 0.4714 | 932.18 | 927.3 | 922.42 | 917.55 | 912.68 | 907.81 | 902.94
x2 = 0.5487 | 945 | 940.02 | 935.04 | 930.06 | 925.08 | 920.1 | 915.12
x2 = 0.63 | 959.44 | 954.33 | 949.22 | 944.11 | 939.01 | 933.91 | 928.81
x2 = 0.7182 | 976.23 | 970.98 | 965.73 | 960.49 | 955.25 | 950.01 | 944.77
x2 = 0.8035 | 993.74 | 988.36 | 982.98 | 977.6 | 972.23 | 966.86 | 961.5
x2 = 0.8708 | 1008.47 | 1002.99 | 997.51 | 992.03 | 986.56 | 981.09 | 975.62
x2 = 0.9324 | 1022.71 | 1017.15 | 1011.59 | 1006.03 | 1000.48 | 994.93 | 989.38

Cc1cc(C)cc(C)c1 [1,3,5-trimethylbenzene] + C1COCCO1
mass density [kg/m3]
Conditions | 288.15 K | 293.15 K | 298.15 K | 303.15 K | 308.15 K | 313.15 K | 318.15 K
x2 = 0 | 869.28 | 865.37 | 861.45 | 857.54 | 853.63 | 849.71 | 845.8
x2 = 0.0696 | 876.28 | 872.24 | 868.2 | 864.16 | 860.13 | 856.1 | 852.07
x2 = 0.1408 | 883.83 | 879.67 | 875.52 | 871.37 | 867.22 | 863.07 | 858.92
x2 = 0.2098 | 891.62 | 887.36 | 883.1 | 878.84 | 874.59 | 870.34 | 866.09
x2 = 0.28 | 900.04 | 895.68 | 891.32 | 886.96 | 882.6 | 878.25 | 873.9
x2 = 0.3558 | 909.87 | 905.4 | 900.93 | 896.46 | 892 | 887.54 | 883.08
x2 = 0.4276 | 919.97 | 915.4 | 910.83 | 906.26 | 901.7 | 897.14 | 892.58
x2 = 0.5066 | 932.03 | 927.35 | 922.67 | 917.99 | 913.32 | 908.65 | 903.98
x2 = 0.5801 | 944.34 | 939.54 | 934.74 | 929.94 | 925.14 | 920.34 | 915.54
x2 = 0.6548 | 957.96 | 953.01 | 948.06 | 943.12 | 938.18 | 933.25 | 928.32
x2 = 0.7227 | 971.44 | 966.36 | 961.28 | 956.21 | 951.14 | 946.07 | 941
x2 = 0.7936 | 986.75 | 981.51 | 976.27 | 971.04 | 965.81 | 960.58 | 955.35
x2 = 0.8663 | 1003.78 | 998.39 | 993 | 987.61 | 982.23 | 976.85 | 971.47
x2 = 0.9319 | 1020.49 | 1014.96 | 1009.43 | 1003.91 | 998.39 | 992.87 | 987.35
